Assay results taken from article PMC5025856, “A Novel Assay for Screening Inhibitors Targeting HIV Integrase LEDGF/p75 Interaction Based on Ni^2+ Coated Magnetic Agarose Beads” (Scientific Reports, 2016).
Read-outs that look alike come from different tables or passages of the source.

Tests used:
[1] = biological target: T1, PPI between HIV-1 IN CCD and LEDGF/p75 IBD (Homo sapiens, UniProt O75475); assay: IN CCD-LEDGF/p75 IBD PPI assay based on Ni-NTA magnetic agarose beads; assay type: binding
T1 construct: The IN CCD protein used contained HIV IN residues 50–212 fused with an C-terminal His6-tag; a fusion of LEDGF/p75 residues 347–471 with the N-terminal GST-tag; made in house; host or cells: bacterial expression vectors pET28a (IN CCD) and pGEX-4T-1 (IBD)
Protocol: In the assay, GST–tagged LEDGF/p75 IBD (yellow) is mixed with His6-tagged IN CCD (green) at the desired concentrations. After incubation at room temperature, a double-tagged PPI complex with N-terminal GST-tag and C-terminal His6-tag is established between two protein partners. The PPI complex is captured by Ni^2+-coated magnetic beads (red) through His6-tag, followed by the addition of alkaline phosphatase conjugated anti-GST antibody (dark red). Therefore, the product could be measured by the alkaline phosphatase conjugated-coupled enzyme reaction (Fig. 1A).
The IN CCD-LEDGF/p75 IBD interaction assay was developed based on Ni-NTA Magnetic Agarose Beads (BEAVER Nano-technologies Co., Ltd. Suzhou, China). The assay was optimized for use in 96-well nonbinding surface microplates (Corning, New York, USA) in a final volume of 100 μl per well. Briefly, the assay works as follows. Compounds and proteins were diluted to 10× and 5× working solutions in the 1× assay buffer (25 mM Tris-HCl, pH 7.4, 150 mM NaCl, 1 mM MgCl2, 0.05% BSA[v/w]) respectively. Firstly, 10 μl compound dilution, 50 μl 1× buffer, 20 μl each of protein dilutions were pipetted into the wells. The plate was sealed and left to incubate at 200 rpm for 3 h at RT. Secondly, 10 μl of Ni-NTA Magnetic Agarose Beads were added followed by incubating at 900 rpm for 30 min at RT. Thirdly, the wells holding the mixture were placed on a magnetic concentrator, the supernatant was discarded, and the wells were washed 3 times with 200 μl wash buffer (50 mM sodium phosphate, pH 7.4, 150 mM NaCl, 0.005% tween-20[v/v], 20 mM imidazole). Fourthly, the wells were incubated with 100 μl of a 1:4000 solution of mouse anti-GST antibody (Sigma, USA) in antibody dilution buffer (50 mM Sodium Phosphate, pH 7.4, 150 mM NaCl, 0.005% Tween-20[v/v], 0.5%[w/v] BSA) at 900 rpm for 30 min at 37 °C, followed by washing three times. Fifthly, the wells were incubated with 100 μl of a 1:5000 solution of rabbit anti-mouse IgG alkaline phosphatase conjugated antibody (Sigma, USA) in antibody dilution buffer at 900 rpm for 30 min at 37 °C, followed by washing 3 times. Lastly, the color reaction was developed with 100 μl substrate buffer (10 mM diethanolamine, pH 9.8, 0.5 mM MgCl2, 8 mM p-NPP) for 30 min at 37 °C. The absorbance ([…]) of each well was measured in an Enspire multimode reader (PerkinElmer, USA). The reproducibility, signal stability, and robustness of this PPI assay were determined to ensure its compatible for HTS. Furthermore, IL23, an IN CCD-LEDGF/p75 IBD PPI inhibitor, was used to validate the assay efficiency.
In total, 1000 compounds selected at random from ‘The Spectrum Collection’ were purchased from National compound resource center. The library, which is composed of 2,320 compounds in 10 mM DMSO solution, lists primarily FDA-approved human therapeutic drugs, drug-like compounds, and natural products. Each compound was diluted in DMSO to reach a concentration of 300 μM, which was used as the 10× compound stock. In all screening campaigns, the negative control was based on the use of PPI binding mutant controls (single-point mutation) that would prevent the PPI from forming, and the positive control contained 10% (v/v) DMSO only. The negative and positive control with 8 replicates wells each located randomly among the 96 wells of each plate.
The z′ factor, signal-to-noise ratio (S/N), signal-to-background ratio (S/B), signal window (SW), and coefficient of variation (CV) were calculated and then compared with the minimum pass criteria (z′ >0.5, S/N>10, S/B > 3, SW >2, CV < 20%)[39][40][41][42]. The “hits” for PPI assays were classified as compounds that led to more than 60% disruption of a PPI complex. All HTS data were processed using Excel (Microsoft Corp.) and visualized using Prism 5.0 (GraphPad Software).

LEDGF/p75 = LEDGF/p75 (Homo sapiens, UniProt O75475); assay: Biolayer interferometry (BLI) binding to LEDGF/p75; details: ForteBIO Octet, 1:1 Langmuir global fit, read-out: dissociation constant Kd
Protocol: Biolayer interferometry (BLI) was used to study the kinetics of dexlansoprazole binding to LEDGF/p75 on a ForteBio Octet, according to the manufacturer’s instructions and published methods. Streptavidin biosensors tips were pre-wetted with buffer and immobilized with biotinylated protein. The biosensors were then transferred into wells containing dexlansoprazole in serial dilutions from 32 μM to 1 μM concentrations. Protein–ligand binding was measured by monitoring the changes in the interferometric profile of the wavelength of light passing through the sensor. Binding curves were analyzed using ForteBIO software, which performs a global fit according to the 1:1 Langmuir model to obtain the kinetic rate constants for each set of interaction conditions.

cancer xenograft models = system: cancer xenograft models; parameters: method as in PMID 25093583; details: primary screen hit in cancer xenograft models; cited from earlier work
His6-tagged GST protein = biological target: T2, His6-tagged GST protein (Schistosoma japonicum, UniProt P08515); assay: Non-specificity counterscreen with His6-GST protein; details: dose-response, 10 nM His6-tagged GST protein
T2 construct: made in house; host or cells: bacterial expression vector pGEX-4T-1
Protocol: The false positive compound identified in this HTS may affect the assay by forming hydrogen bonds interaction with His6-tag of IN CCD or forming chelating complexes with Ni^2+-ion covering magnetic beads surface. […] Any compound that interfered with bead or with the His6-tag of double-tagged protein would result in a decreased signal in the counterscreen assay.
A counterscreen was carried out as described above, with the replacement of purified HIV-1 IN CCD and LEDGF/p75 IBD with 10 nM His6-tagged GST protein.

[2] = biological target: HIV-1 integrase catalytic core domain (IN CCD), residues 50-212, F185K, C-terminal His6-tag (HIV-1); assay: ELISA; ELISA-based magnetic bead assay: GST-IBD and His6-CCD mixed in solution (25 mM Tris-HCl pH 7.4, 150 mM NaCl, 1 mM MgCl2, 0.05% BSA, 3 h RT), complex captured on Ni-NTA magnetic agarose beads by the His6-tag, detected with anti-GST antibody and alkaline phosphatase conjugate, absorbance read-out (A405); optimal conditions, ratio 1:1
[3] = biological target: HIV-1 IN CCD W131E (residues 50-212, F185K, W131E), C-terminal His6-tag (HIV-1); assay: as above
[4] = at 30 μM for each proton-pump inhibitor, PPI between LEDGF/p75 IBD and IN CCD, read-out: Inhibition (%)
[5] = IN CCD-LEDGF/p75 IBD PPI, magnetic-beads assay, dose response, read-out: IC50

Compound	inhibition at 30 µM [1, 4] [%]	IC50 [1, 5] [µM]	also measured
Cc1c(OCC(F)(F)F)ccnc1C[S+]([O-])c1nc2ccccc2[nH]1 (centres unmarked) [Lansoprazole]	-86.2	–	–
Cc1c(OCC(F)(F)F)ccnc1C[S@@+]([O-])c1nc2ccccc2[nH]1 [Dexlansoprazole]	75.2	–	Kd (LEDGF/p75): 330 nM; anti-cancer activity (cancer xenograft models): poor; effect on the assay system (counterscreen) (His6-tagged GST protein): almost had no effect; IC50 [1]: 4.8 µM; inhibition at 30 µM ([1]; confirmatory screening, triplicate, 30 μM, read-out: inhibitory rate): 90.3%; inhibitory activity against IN CCD-LEDGF/p75 IBD interaction (in words) ([1]; qualitative statement): moderate inhibitory activity
COc1ccc2[nH]c([S+]([O-])Cc3ncc(C)c(OC)c3C)nc2n1 (centres unmarked) [Tenatoprazole]	33.6	> 30	–
LEDGF/p75 IBD D366N (residues 347-471), N-terminal GST-tag (from UniProt O75475 347-471) (domain or fragment)	–	–	A405 signal [2]: < 0.01 A405
COc1ccnc(C[S+]([O-])c2nc3ccc(OC(F)F)cc3[nH]2)c1OC (centres unmarked) [Pantoprazole]	-23.9	–	–
LEDGF/p75 integrase binding domain (LEDGF/p75 IBD), residues 347-471, N-terminal GST-tag (from UniProt O75475 347-471) (domain or fragment)	–	–	A405 signal [2]: 0.66 A405; A405 signal [3]: < 0.01 A405
COc1ccc2nc([S@@+]([O-])Cc3ncc(C)c(OC)c3C)[nH]c2c1 [Esomeprazole]	22	> 30	–
COc1ccc2[nH]c([S+]([O-])Cc3ncc(C)c(OC)c3C)nc2c1 (centres unmarked) [Omeprazole]	26.2	> 30	–
COCCCOc1ccnc(C[S+]([O-])c2nc3ccccc3[nH]2)c1C (centres unmarked) [Rabeprazole]	14.5	> 30	–
